Activity data for 2 molecules are collected here from ChEMBL document CHEMBL4706653, “Ultra-short lipopeptides against gram-positive bacteria while alleviating antimicrobial resistance” (Eur J Med Chem, 2021).

The test system of assay [1] is Staphylococcus aureus. Description: Antimicrobial activity against Staphylococcus aureus ATCC 25923 assessed as reduction in bacterial growth at 0.5 times MIC preincubated for 4 hrs followed by replating on MHB agar and measured after 24 hrs by time kill assay. Type of assay: functional, organism-based. Particulars: time 28.0 hrs.
For assay [2], the system named is Cell membrane. Nature of the assay: Induction of cytoplasmic membrane disruption in Staphylococcus aureus ATCC 25923 at 0.5 to 4 times MIC measured for 15 mins by DiSC3-5 dye based fluorescence assay.

SMILES strings stand for the structures. Calls of active or inactive are those of the source. The rule behind the calls is not given here. Residues, ends and D or L forms follow the SMILES beside them. *: point of attachment. Myristoyl = CCCCCCCCCCCCCC(=O)*; Lauroyl = CCCCCCCCCCCC(=O)*

Take `CCCCCCCCCCCC(=O)N[C@@H](CCCNC(=N)N)C(=O)N[C@@H](CCCNC(=N)N)C(=O)N[C@@H](Cc1c[nH]c2ccccc12)C(N)=O` (Lauroyl-Arg-Arg-Trp-NH2): the outcome in assay [1] was Active.

Take `CCCCCCCCCCCCCC(=O)N[C@@H](CCCNC(=N)N)C(=O)N[C@@H](Cc1c[nH]c2ccccc12)C(=O)N[C@@H](Cc1c[nH]c2ccccc12)C(N)=O` (Myristoyl-Arg-Trp-Trp-NH2): the result in assay [2] was Active.
